A word on the pIC50: it is −log10 of the IC50, conventionally taken in molar units.

Experimental findings from patent US12187726B1, “Imidazo[1,5-a]pyrido[4,3-e]pyrazines as CK2 inhibitors” (KING FAISAL UNIVERSITY, priority 2024, dated 2025) are described below.

pIC50: −log10 of the molar value.

The target in assay [1] is T1, recombinant human CK2 (RRββ-holoenzyme) (Homo sapiens, UniProt P68400).
T1 construct: purchased Millipore
Briefly: CK2 Kinase Assay (33P-ATP, filter plate). The note with it: final ATP concentration 15 μM; 10 min at 30° C.; read-out: protein kinase CK2 IC50. The assay is classed as biochemical. Here is the method: CK2 Kinase Assay was conducted using the protocol as described in Pierre F. et al; J. Med. Chem. 2011, 54, 635-654. The tested compounds in aqueous solution were added at a volume of 10 μL to a reaction mixture comprising 10 μL of assay dilution buffer (ADB; 20 mM MOPS, pH 7.2, 25 mM β-glycerol phosphate, 5 mM EGTA, 1 mM sodium orthovanadate, and 1 mM dithiothreitol), 10 μL of substrate peptide (RRRDDDSDDD, dissolved in ADB at a concentration of 1 mM), 10 μL of recombinant human CK2 (RRββ-holoenzyme, 25 ng dissolved in ADB; Millipore). Reactions were initiated by the addition of 10 μL of ATP solution (90% 75 mMMgCl2, 75 μM ATP (final ATP concentration: 15 μM) dissolved in ADB; 10% [γ-33P] ATP (stock 1mCi/100 μL; 3000 Ci/mmol (Perkin-Elmer) and maintained for 10 min at 30° C. The reactions were quenched with 100 μL of 0.75% phosphoric acid and then transferred to and filtered through a phosphor cellulose filter plate (Millipore). After washing each well five times with 0.75% phosphoric acid, the plate was dried under vacuum for 5 min and, following the addition of 15 μL of scintillation fluid to each well, the residual radioactivity was measured using a Wallac luminescence counter. The IC50 values were derived from eight concentrations of test inhibitors.

Assay [2] concerns HCT116 (colon) cancer cells. Put plainly: MTT in vitro cytotoxic activity assay, HCT116. The assay is classed as cell-based. The following applies: Homo sapiens, HCT-116; cells exposed for 96 hours; 50% inhibition of cell proliferation; read-out: Cytotoxicity activity IC50, HCT116 (colon). Here is the method: (§1) Compounds 1-16 were screened for their in vitro cytotoxic activity utilizing a 3-(4,5-dimethyl-thiazol-2-yl)-2,5-diphenyltetrazolium bromide (MTT) assay against selected cancer human cell lines consisting of PC3 (prostate), HCT116 (colon), A375 (melanoma), H1299 (lung), MIAPaCa-2 (pancreas), HL60 (leukemia), MCF7 (breast), MDA-MB-231 (breast) (T. Mosmann, J. Immunol. Meth., 1983, 65, 55-63). The cells were cultured at 37° C. in RMPI1640 medium supplemented with 10% fetal bovine serum, 50 IU/mL penicillin, and 50 μg/mL streptomycin in a 5% CO2 incubator. All cells were sub-cultured 3 times/week by trypsinisation. Viable cells were seeded and allowed to adhere for 12 hours before a test drug was added in 96-well plates at an initial density of 1.0×10^5 cells/mL. Tumor cell lines were separately exposed to various concentrations of the tested compounds followed by incubation at a temperature of 37° C. during 96 hours inside a medium of fresh RMPI 1640. Cells were subsequently incubated at 37° C. using MTT at 0.5 mg/mL during 4 hours. After removal of supernatant, formazan crystals were dissolved in isopropanol and the optical density was measured at 570 nm. CX-4945 was used as a positive control.

The test system of assay [3] is MCF7 (breast) cancer cells. Put plainly: MTT in vitro cytotoxic activity assay, MCF7. The assay is classed as cell-based. The note with it: Homo sapiens, cells exposed for 96 hours, 50% inhibition of cell proliferation, read-out: Cytotoxicity activity IC50, MCF7 (breast). Here is the method: as §1
For assay [4], the system named is MIAPaCa-2 (pancreas) cancer cells. Put plainly: MTT in vitro cytotoxic activity assay, MIAPaCa-2. The class given is cell-based. The following applies: Homo sapiens, MIA PaCa-2; cells exposed for 96 hours; 50% inhibition of cell proliferation; read-out: Cytotoxicity activity IC50, MIAPaCa-2 (pancreas). Here is the method:
as §1

Assay [5] relates to HL60 (leukemia) cancer cells. Put plainly: MTT in vitro cytotoxic activity assay, HL60. The assay is classed as cell-based. The following applies: Homo sapiens, HL-60; cells exposed for 96 hours; 50% inhibition of cell proliferation; read-out: Cytotoxicity activity IC50, HL60 (leukemia). Here is the method:
as §1

The test system of assay [6] is A375 (melanoma) cancer cells. Briefly: MTT in vitro cytotoxic activity assay, A375. The assay is classed as cell-based. The following applies: Homo sapiens, A-375; cells exposed for 96 hours; 50% inhibition of cell proliferation; read-out: Cytotoxicity activity IC50, A375 (melanoma). The protocol:
as §1

Assay [7] has as its system MDA-MB-231 (breast) cancer cells. Briefly: MTT in vitro cytotoxic activity assay, MDA-MB-231. The class given is cell-based. The note with it: Homo sapiens, cells exposed for 96 hours, 50% inhibition of cell proliferation, read-out: Cytotoxicity activity IC50, MDA-MB-231 (breast). Here is the method: as §1
Assay [8] relates to H1299 (lung) cancer cells. Briefly: MTT in vitro cytotoxic activity assay, H1299. The class given is cell-based. The note with it: Homo sapiens, NCI-H1299; cells exposed for 96 hours; 50% inhibition of cell proliferation; read-out: Cytotoxicity activity IC50, H1299 (lung). Here is the method:
as §1

For assay [9], the system named is PC3 (prostate) cancer cells. Briefly: MTT in vitro cytotoxic activity assay, PC3. The class given is cell-based. The following applies: Homo sapiens; cells exposed for 96 hours; 50% inhibition of cell proliferation; read-out: Cytotoxicity activity IC50, PC3 (prostate). The protocol: as §1

T1 sequence (P68400 whole entry): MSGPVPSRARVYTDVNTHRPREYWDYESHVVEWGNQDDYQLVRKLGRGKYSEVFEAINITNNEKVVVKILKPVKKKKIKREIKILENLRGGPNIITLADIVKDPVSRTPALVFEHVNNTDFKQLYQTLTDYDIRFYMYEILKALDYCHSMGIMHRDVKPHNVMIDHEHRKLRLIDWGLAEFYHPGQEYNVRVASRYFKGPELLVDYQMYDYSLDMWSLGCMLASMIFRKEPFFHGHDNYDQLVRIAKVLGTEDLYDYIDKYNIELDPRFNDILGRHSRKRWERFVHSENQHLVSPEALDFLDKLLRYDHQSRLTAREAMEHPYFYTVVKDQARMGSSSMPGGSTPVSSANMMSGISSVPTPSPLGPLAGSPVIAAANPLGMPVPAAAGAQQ
T1 sequence (P67870 whole entry partner): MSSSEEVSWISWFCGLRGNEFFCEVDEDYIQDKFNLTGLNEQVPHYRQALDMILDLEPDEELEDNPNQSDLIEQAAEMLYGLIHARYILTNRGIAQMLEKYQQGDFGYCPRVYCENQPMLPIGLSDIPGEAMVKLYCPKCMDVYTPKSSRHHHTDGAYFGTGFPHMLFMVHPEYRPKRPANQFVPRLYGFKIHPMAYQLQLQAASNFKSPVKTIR

With `O=C(O)c1ncn2c1c(Nc1cccc(Cl)c1)nc1ccncc12` [Compound 1, 4-((3-chlorophenyl)amino) imidazo[1,5-a]pyrido[4,3-e]pyrazine-3-carboxylic acid], the pIC50 in assay [1] was 7.44; in assay [2], 5.74; in [3], 5.23; in assay [4], 5.96; in [5], 5.59; in assay [6], 5.48. The results for the pIC50 in assay [7], in [8] and in assay [9] were 5.28, 5.60 and 5.68, respectively.
